From patent US20240009116A1, “DRUG DELIVERY SYSTEM COMPRISING A NON-STEROIDAL ANTI-INFLAMMATORY (NSAID) AND A PROGESTOGENIC COMPOUND AND METHODS FOR MANUFACTURING” (Bayer OY, priority 2015, published 2024)

Test: Polymorph form during filament preparation and printing (i.a. X-ray diffraction)
Type: physicochemical
Description: As drug indomethacin was used. Indomethacin can appear in different polymorphic forms, which are differently bioavailable. In the current examples the stable form y-indomethacin was used. […] Other NSAID's such as meloxicam, piroxicam, naproxen, celecoxib, diclofenac, tenoxicam, nimesulide, lornoxicam and indomethacin are likewise suitable, of which indomethacin is particularly preferred.

In the case of `COc1ccc2c(c1)c(CC(=O)O)c(C)n2C(=O)c1ccc(Cl)cc1` [y-indomethacin, indomethacin], the polymorph form stability is reported as “the polymorph form does not change during filament preparation and printing”.
